Data set [1] concerns KB. Kind of data set: Cytotoxicity against human KB cells assessed as reduction in cell viability by resazurin microplate assay. The class given is functional, cell-based. Particulars: for pIC50: Homo sapiens, KB, read-out: IC50; for IC50: kb. A general note: Resazurin is reduced to fluorescent resorufin, in cell work by metabolically active cells.
The test system of data set [2] is MCF7. Put plainly: Cytotoxicity against human MCF7 cells assessed as reduction in cell viability by resazurin microplate assay. The class given is functional, cell-based. The note with it: for pIC50: Homo sapiens, MCF7, read-out: IC50; for IC50: mcf7.
The subject of data set [3] is Vero. Kind of data set: Cytotoxicity against African green monkey Vero cells assessed as reduction in cell viability by green fluorescent protein-based assay. The note with it: for IC50: vero; for pIC50: Chlorocebus sabaeus, Vero, read-out: IC50. Set-up: species or system Chlorocebus sabaeus.
Data set [4] deals with KB. Put plainly: Cytotoxicity against human KB cells assessed as reduction in cell viability at >50 ug/ml by resazurin microplate assay. The class given is functional, cell-based.
Data set [5] relates to MCF7. Kind of data set: Cytotoxicity against human MCF7 cells assessed as reduction in cell viability at >50 ug/ml by resazurin microplate assay. Format: functional, cell-based.
Data set [6] relates to Vero. Put plainly: Cytotoxicity against African green monkey Vero cells assessed as reduction in cell viability at >50 ug/ml by green fluorescent protein-based assay. Particulars: Chlorocebus sabaeus.

The term pIC50 denotes the negative decadic logarithm of the IC50, by convention in mol/L.

The structures appear in SMILES notation. pIC50: −log10 of the molar value. The source made the active and inactive calls. No cut-off for these calls is given here.

`COc1cccc2c1C(=O)c1c(O)c3c(c(O)c1C2=O)C[C@@](O)(C(=O)CO)C[C@@H]3O[C@H]1C[C@H](N)[C@H](O)[C@H](C)O1` [DOXORUBICIN]: the pIC50 in data set [1] was 5.97.
`CC/C(=C(\c1ccccc1)c1ccc(OCCN(C)C)cc1)c1ccccc1` [TAMOXIFEN]: the pIC50 in data set [2] is 4.71.
Turning to `CCC(=O)Oc1cc2c(c(OC(=O)CC)c1)C(=O)O[C@@H](C)CCCC(=O)CCC/C=C/2`, the IC50 result in data set [1], in data set [2] and in data set [3] was “Not Active” each time. Besides, the outcome in data set [4] and in data set [5] was inactive. In addition, the Activity entry in data set [6] was “Non-toxic”.
Turning to `COc1cc(O)c2c(c1)CCCCCC(=O)CCC[C@H](C)OC2=O`, the IC50 entry in data set [1], in data set [2] and in data set [3] was “Not Active” in each case. The result in data set [4] and in data set [5] was inactive. In data set [6], the Activity entry is reported as “Non-toxic”.
Take `COc1cc2c(c(OC)c1)C(=O)O[C@@H](C)CCC[C@@H](O)CCCCC2`: the IC50 entry in data set [1], in data set [2] and in data set [3] was “Not Active” throughout. For the same compound, the result in data set [4] and in data set [5] was inactive. In addition, in data set [6], the Activity result was “Non-toxic”.
Turning to `C[C@H]1CCC[C@H](O)CCC/C=C/c2cc(O)cc(O)c2C(=O)O1`, the values for the pIC50 in data set [1] and in data set [3] were 4.00 and 4.22, respectively. For the same compound, the IC50 entry in data set [2] was “Not Active”. Moreover, the result in data set [5] was inactive.
In the case of `CCC(=O)Oc1cc(O)c2c(c1)/C=C/CCC[C@@H](O)CCC[C@H](C)OC2=O`, the negative-log IC50 (pIC50) in data set [1] is 4.07; in data set [3], 3.89. Also, the IC50 entry in data set [2] was “Not Active”. Moreover, the outcome in data set [5] was inactive.
Regarding `COc1cc(O)c2c(c1)/C=C/CCCC(=O)CCC[C@H](C)OC2=O`, the IC50 entry in data set [1], in data set [2] and in data set [3] was “Not Active” throughout. Also, the outcome in data set [4] and in data set [5] was inactive. The Activity entry in data set [6] was “Non-toxic”.
As to `CC(=O)Oc1cc(O)c2c(c1)/C=C/CCC[C@@H](O)CCC[C@H](C)OC2=O`, the results for the negative logarithm of the IC50 (pIC50) in data set [1], in data set [2] and in data set [3] were 4.29, 4.05 and 3.87, respectively.
Take `CC(=O)Oc1cc(O)c2c(c1)/C=C/CCCC(=O)CCC[C@H](C)OC2=O`: the pIC50 in data set [1] was 4.28; in data set [3] it was 3.87. Moreover, the IC50 result in data set [2] was “Not Active”. In addition, the outcome in data set [5] was inactive.
Regarding `COc1cc(O)c2c(c1)CCCCC[C@H](O)CCC[C@H](C)OC2=O`, the IC50 entry in data set [1] and in data set [2] was “Not Active” throughout. Moreover, the negative-log IC50 (pIC50) in data set [3] was 3.83. In addition, the result in data set [4] and in data set [5] was inactive.
As to `C[C@H]1CCC[C@@H](O)CCCCCc2cc(O)cc(O)c2C(=O)O1` [TALERANOL], the IC50 result in data set [1] and in data set [2] was “Not Active” in each case. In addition, the pIC50 in data set [3] is 4.65. For the same compound, the result in data set [4] and in data set [5] was inactive.
With `C[C@H]1CCC[C@@H](O)CCC/C=C/c2cc(O)cc(O)c2C(=O)O1`, the IC50 entry in data set [1] and in data set [2] was “Not Active” each time. For the same compound, the pIC50 in data set [3] is 4.60. Also, the result in data set [4] and in data set [5] was inactive.
On to `COc1cc2c(c(OC)c1)C(=O)O[C@@H](C)CCC[C@@H](O)CCC/C=C/2`, for which the IC50 entry in data set [1], in data set [2] and in data set [3] was “Not Active” in each case. The result in data set [4] and in data set [5] was inactive. The Activity entry in data set [6] is reported as “Non-toxic”.
As to `CCCOc1cc(O)c2c(c1)/C=C/CCC[C@@H](O)CCC[C@H](C)OC2=O`, the pIC50 in data set [1] is 4.45; in data set [2], 4.36; in data set [3], 4.58.
For the compound `Cc1c2ccncc2c(C)c2c1[nH]c1ccccc12` [ELLIPTECINE], the results for the pIC50 in data set [1] and in data set [3] were 5.08 and 5.37, respectively.
`CCOc1cc(O)c2c(c1)/C=C/CCC[C@@H](O)CCC[C@H](C)OC2=O`: the pIC50 in data set [1] is 4.17; in data set [2], 4.21. In addition, in data set [3], the IC50 entry is reported as “Not Active”. Further, in data set [6], the Activity result is “Non-toxic”.
As for `CC(=O)Oc1cc(O)c2c(c1)/C=C/CCC[C@H](O)CCC[C@H](C)OC2=O`, the pIC50 in data set [1] was 4.31; in data set [3], 4.87. Besides, the IC50 result in data set [2] is recorded as “Not Active”. Moreover, the result in data set [5] was inactive.
Consider `COc1cc(OC)c2c(c1Cl)/C=C/CCCC(=O)CCC[C@H](C)OC2=O`, for which the IC50 result in data set [1], in data set [2] and in data set [3] was “Not Active” throughout. Further, the outcome in data set [4] and in data set [5] was inactive. Also, the Activity entry in data set [6] is “Non-toxic”.
For the compound `COc1cc2c(c(OC)c1)C(=O)O[C@@H](C)CCC[C@H](O)CCCCC2`, the IC50 entry in data set [1], in data set [2] and in data set [3] was “Not Active” each time. Further, the result in data set [4] and in data set [5] was inactive. Besides, the Activity result in data set [6] is reported as “Non-toxic”.
For `C[C@H]1CCCC(=O)CCCCCc2cc(O)cc(O)c2C(=O)O1` [ZEARALANONE], the IC50 result in data set [1] and in data set [2] was “Not Active” each time. Besides, in data set [3], the pIC50 is 3.82. Also, the result in data set [4] and in data set [5] was inactive.
Consider `COc1cc(O)c2c(c1)/C=C/CCC[C@@H](O)CCC[C@H](C)OC2=O`, for which the results for the negative logarithm of the IC50 (pIC50) in data set [1], in data set [2] and in data set [3] were 3.98, 4.03 and 4.27, respectively.
`COc1cc(O)c2c(c1)/C=C/CCC[C@H](O)CCC[C@H](C)OC2=O`: in data set [1], the negative logarithm of the IC50 (pIC50) was 4.25. The IC50 entry in data set [2] and in data set [3] was “Not Active” throughout. Also, the result in data set [5] was inactive. Moreover, in data set [6], the Activity result is recorded as “Non-toxic”.
As for `CCC(=O)Oc1cc(O)c2c(c1)/C=C/CCC[C@H](O)CCC[C@H](C)OC2=O`, the values for the negative-log IC50 (pIC50) in data set [1] and in data set [3] were 4.48 and 4.46, respectively. In addition, in data set [2], the IC50 entry is listed as “Not Active”. The result in data set [5] was inactive.
Consider `COc1cc(O)c2c(c1Cl)/C=C/CCCC(=O)CCC[C@H](C)OC2=O`, for which the pIC50 in data set [1] was 3.96; in data set [3], 4.29. Also, the IC50 entry in data set [2] is given as “Not Active”. In addition, in data set [5], the result was inactive.
In the case of `C[C@H]1CCC[C@H](O)CCCCCc2cc(O)cc(O)c2C(=O)O1` [ZERANOL], the IC50 result in data set [1] and in data set [2] was “Not Active” in each case. The pIC50 in data set [3] is 4.30. Also, the result in data set [4] and in data set [5] was inactive.
In the case of `COc1cc2c(c(OC)c1)C(=O)O[C@@H](C)CCC[C@H](O)CCC/C=C/2`, the IC50 entry in data set [1], in data set [2] and in data set [3] was “Not Active” each time. For the same compound, the result in data set [4] and in data set [5] was inactive. Also, the Activity result in data set [6] is “Non-toxic”.
In the case of `C[C@H]1CCCC(=O)CCC/C=C/c2c(Cl)c(O)cc(O)c2C(=O)O1`, the results for the negative-log IC50 (pIC50) in data set [1] and in data set [3] were 4.05 and 3.85, respectively. In data set [2], the IC50 entry is reported as “Not Active”. Further, in data set [5], the outcome was inactive.
Take `COc1cc2c(c(OC)c1)C(=O)O[C@@H](C)CCCC(=O)CCC/C=C/2`: the IC50 result in data set [1], in data set [2] and in data set [3] was “Not Active” throughout. The outcome in data set [4] and in data set [5] was inactive. Further, the Activity entry in data set [6] is “Non-toxic”.
`COc1cc2c(c(OC)c1)C(=O)O[C@@H](C)CCCC(=O)CCCCC2`: the IC50 result in data set [1], in data set [2] and in data set [3] was “Not Active” each time. The outcome in data set [4] and in data set [5] was inactive. Further, in data set [6], the Activity entry is listed as “Non-toxic”.
On to `CCCOc1cc(O)c2c(c1)/C=C/CCC[C@H](O)CCC[C@H](C)OC2=O`, for which the figures for the pIC50 in data set [1], in data set [2] and in data set [3] were 4.08, 4.09 and 4.27, respectively.
In the case of `CC(=O)Oc1cc2c(c(OC(C)=O)c1)C(=O)O[C@@H](C)CCCC(=O)CCC/C=C/2`, the negative-log IC50 (pIC50) is 4.22 in data set [1] and 4.32 in data set [3]. The IC50 result in data set [2] is on record as “Not Active”. Also, the result in data set [5] was inactive.
With `CCOc1cc(O)c2c(c1)/C=C/CCC[C@H](O)CCC[C@H](C)OC2=O`, the results for the pIC50 in data set [1], in data set [2] and in data set [3] were 4.22, 4.15 and 4.34, respectively.
The like results for `CCCCCCCCOc1cc(O)c2c(c1)/C=C/CCC[C@@H](O)CCC[C@H](C)OC2=O` were, in that order, 4.39, 4.12 and 4.62.
Regarding `CCC(=O)Oc1cc(O)c2c(c1)/C=C/CCCC(=O)CCC[C@H](C)OC2=O`, the results for the pIC50 in data set [1] and in data set [3] were 4.28 and 4.36, respectively. For the same compound, the IC50 result in data set [2] was “Not Active”. Further, in data set [5], the outcome was inactive.
For the compound `CCCCCCCCOc1cc(O)c2c(c1)/C=C/CCC[C@H](O)CCC[C@H](C)OC2=O`, the pIC50 in data set [1] is 4.09; in data set [2] it was 4.03; in data set [3], 4.13.

The values above are taken from ChEMBL document CHEMBL3826902, “Synthesis and cytotoxic activities of semisynthetic zearalenone analogues” (Bioorg Med Chem Lett, 2016).
